Test results from patent EP0322251A2, “Benzothiopyran derivatives” (BEECHAM GROUP PLC, priority 1987, dated 1989).

Test system: Spontaneously hypertensive rats
Assay: Blood pressure lowering activity, tail cuff method
Format: in vivo
Method: Blood Pressure Lowering Activity
Systolic blood pressures were recorded by a modification of the tail cuff method described by I.M. Claxton, M.G. Palfreyman, R.H. Poyser, R.L. Whiting, European Journal of Pharmacology, 37, 179 (1976). A W+W BP recorder, model 8005 was used to display pulses. Prior to all measurements rats were placed in a heated environment (33.5 ± 0.5°C) before transfer to a restraining cage. Each determination of blood pressure was the mean of at least 6 readings. Spontaneously hypertensive rats (ages 12-18 weeks) with systolic blood pressures >180 mmHg were considered hypertensive.

Cc1ccc2c(c1)C(N1CCCC1=O)=CC(C)(C)S2(=O)=O [Example 2, 4-(2-Oxopyrrolidin-1-yl)-2,2,6-trimethyl-2H-1-benzothiapyran-1,1-dioxide]
% Change in Systolic Blood Pressure (dose 10 mg/kg, 1 hour post dose): -50 ± 2 (n=5) % | % Change in Systolic Blood Pressure (dose 10 mg/kg, 2 hours post dose): -34 ± 4 (n=5) % | % Change in Systolic Blood Pressure (dose 10 mg/kg, 4 hours post dose): -22 ± 3 (n=4) % | % Change in Systolic Blood Pressure (dose 10 mg/kg, 6 hours post dose): -15 ± 2 (n=4) %

Cc1ccc2c(c1)[C@@H](N1CCCCC1=O)[C@H](O)C(C)(C)S2(=O)=O (relative stereo) [Example 3, Trans 3.4-dihydro-4-(2-oxopiperidin-1-yl)-2,2,6-trimethyl-2H-1-benzothiapyran-3-ol-1,1-dioxide]
% Change in Systolic Blood Pressure (dose 30 mg/kg, 1 hour post dose): -25 (n=2) % | % Change in Systolic Blood Pressure (dose 30 mg/kg, 2 hours post dose): -31 ± 7 (n=3) % | % Change in Systolic Blood Pressure (dose 30 mg/kg, 4 hours post dose): -16 ± 2 (n=3) % | % Change in Systolic Blood Pressure (dose 30 mg/kg, 6 hours post dose): -14 ± 3 (n=3) %

Cc1ccc2c(c1)C(N1CCCCC1=O)[C@H](O)C(C)(C)S2 (stereo partly drawn) [Example 1, Trans 3,4-Dihydro-4-(2-oxopiperidin-1-yl)-2,2,6-trimethyl-2H-1-benzothiapyran-3-ol]
% Change in Systolic Blood Pressure (dose 1 mg/kg, 1 hour post dose): -22 ± 5 (n=6) % | % Change in Systolic Blood Pressure (dose 1 mg/kg, 2 hours post dose): -17 ± 6 (n=6) % | % Change in Systolic Blood Pressure (dose 1 mg/kg, 4 hours post dose): -12 ± 11 (n=6) %
